We go through 16 compounds from article PMC8398805, “Chemical Characterization and Anti-HIV-1 Activity Assessment of Iridoids and Flavonols from Scrophularia trifoliata” (Molecules, 2021).

The term IC50 denotes the concentration that gives 50% inhibition.

The target in assay [1] is T1, HIV-1 IN in the presence of LEDGF/p75 (Human immunodeficiency virus type 1 group M subtype B, UniProt P04585).
T1 construct: Recombinant 6xHis tagged IN protein was expressed and purified as described previously; 6xHis; made in house; host or cells: Escherichia coli BL21 (DE3) for IN
Briefly: HTRF LEDGF-dependent integrase assay. The assay is classed as biochemical. To be noted: for IC50: concentration required to inhibit IN catalytic activities, in the presence of LEDGF, by 50%; for remaining activity at 100 µM: in the presence of 100 µM compound concentration, read-out: HIV-1 IN LEDGF-dependent percentage of control. As to the method:
Recombinant 6xHis tagged IN protein was expressed and purified as described previously. Briefly, IN was expressed in Escherichia coli strain BL21 (DE3). Initial purification was done using a Ni-Sepharose column with an imidazole gradient from 20 mM to 500 mM concentration in a 50 mM HEPES (pH 7.5) buffer containing 1 M NaCl, 7.5 mM CHAPS, and 2 mM β-mercaptoethanol. This was followed by a heparin column purification with a NaCl gradient from 0 to 1 M concentrations. His-LEDGF was purified by loading precipitate of cell lysate onto a heparin column and was eluted with an increasing NaCl gradient (200 mM to 1 M) in a 50 mM HEPES (pH 7.5) buffer containing 7.5 mM CHAPS and 2 mM β-mercaptoethanol. Peak fractions were pooled and loaded onto a Superdex 200 GL column and eluted in a buffer containing 50 mM HEPES (pH 7.5), 200 mM NaCl, and 2 mM β-mercaptoethanol. Fractions containing LEDGF were pooled and stored in 15% glycerol at −80 °C.
The HTRF assay allows measuring the inhibition of 3′-processing and strand-transfer IN reactions in the presence of recombinant LEDGF/p75 cellular cofactor [43]. Briefly, 50 nM IN was pre-incubated with an increasing concentration of compounds for 1 h at room temperature in reaction buffer containing 20 mM HEPES pH 7.5, 1 mM DTT, 1% Glycerol, 20 mM MgCl2, 0.05% Brij-35, and 0.1 mg/mL BSA. […] After the incubation, 4 nM of Europium-Streptavidin were added to the reaction mixture, and the HTRF signal was recorded using a Perkin Elmer Victor 3 plate reader using a 314 nm for the excitation wavelength and 668 and 620 nm for the wavelength of the acceptor and the donor substrate emission, respectively.
(In TR-FRET formats the signal depends on donor and acceptor labels being close together.)

Assay [2] addresses T2, HIV-1 RT-associated RNase H activity (Human immunodeficiency virus type 1 group M subtype B, UniProt P04585).
T2 construct: The 1:1 ration between the p66/p51 subunits was also verified; made in house; host or cells: E. coli strain M15 with the p6HRT-prot vector
Briefly: RNase H polymerase-independent cleavage assay. The assay is classed as biochemical. To be noted: for IC50: compound concentration required to inhibit the HIV-1 RNase H activity by 50%; for remaining activity at 100 µM: read-out: HIV-1 RNase H percentage of control. As to the method:
HIV-1 RT group M subtype B. Heterodimeric RT was expressed and purified essentially as previously described. Briefly, protein was expressed in E. coli strain M15 containing the p6HRT-prot vector, induced with 1.7 mM isopropyl β-D-1-thiogalactopyranoside for 4 h. Protein purification was carried out with a BioLogic LP system (Biorad), using a combination of immobilized metal affinity and ion exchange chromatography. First, crude bacterial extract was clarified by centrifugation and loaded onto a Ni^2+-NTA-Sepharose column pre-equilibrated with a loading buffer (50 mM sodium phosphate buffer pH 7.8, containing 0.3 M NaCl, 10% glycerol, and 10 mM imidazole); RT was eluted with an imidazole gradient in wash buffer (0–0.5 M). Fractions were collected and protein purity was checked by SDS-PAGE and found to be higher than 90%. The 1:1 ration between the p66/p51 subunits was also verified. Enzyme-containing fractions were pooled and diluted 1:1 with 50 mM sodium phosphate buffer pH 7.0, containing 10% glycerol, and then loaded into a Hi-trap heparin HP GE (Healthcare Lifescience) using a loading buffer (50 mM sodium phosphate buffer pH 7.0, containing 10% glycerol and 150 mM NaCl). RT was eluted with Elute Buffer 2 (50 mM Sodium Phosphate pH 7.0, 10% glycerol, 1 M NaCl). Fractions were collected and protein was dialyzed and stored in a buffer containing 50 mM Tris-HCl pH 7.0, 25 mM NaCl, 1 mM EDTA, and 50% glycerol. Catalytic activities and protein concentrations were determined. Enzyme-containing fractions were pooled and aliquots were stored at −80 °C.
HIV RT-associated RNase H activity was measured as described (using the RNase H inhibitor RDS175911 as a control.) In a 100 µL reaction volume containing 50 mM Tris-HCl buffer with pH 7.8, 6 mM MgCl2, 1 mM dithiothreitol (DTT), 80 mM KCl, 0.25 µM hybrid RNA/DNA 5′-[…]-Fluorescin-3′ (HPLC, dry, QC: Mass Check) (available from Metabion (Planegg, Germany)) 5′-Dabcyl-[…]-3′ (HPLC, dry, QC: Mass Check), there were increasing concentrations of an inhibitor, whose dilution was made in water, and 20 ng of wt RT, according to a linear range of dose-response curve. The reaction mixture was incubated for 1 h at 37 °C, stopped by the addition of EDTA, and products were measured with a multilabel counter plate reader Victor 3 (Perkin Elmer model 1420-051 (Waltham, MA, USA)) equipped with filters for 490/528 nm (excitation/emission wavelength).

In another assay the test system is HIV-1 RT. To be noted: cited from earlier work.
Where [3] appears, read: in the presence of 100 µM compound concentration.

Where “and” joins values, the source holds several entries; their conditions need not be identical. Equal entries are not always repeated. Where two headings read alike, the source gives them in different places. Marks after values point to notes of the source that are not given here. Some results are limits rather than exact numbers.

For the compound `OC[C@H]1O[C@@H](O[C@@H]2OC=C[C@H]3[C@H](O)[C@@H]4O[C@]4(CO)[C@@H]23)[C@H](O)[C@@H](O)[C@@H]1O` [Compound 1, catalpol], the IC50 in assay [1] and in assay [2] was greater than 100 µM each time. Also, the remaining activity at 100 µM in assay [1] and in assay [2] (setting [3]) was 100% throughout.
Turning to `OCC1=C[C@@H](O)[C@@H]2C=CO[C@@H](O[C@@H]3O[C@H](CO)[C@@H](O)[C@H](O)[C@H]3O)[C@H]12` [Compound 2, aucubin], the IC50 in assay [1] and in assay [2] was greater than 100 µM in each case. Moreover, the remaining activity at 100 µM in assay [1] and in assay [2] (setting [3]) was 100% throughout.
Regarding `C[C@]1(O)C[C@@H](O)[C@@H]2C=CO[C@@H](O[C@@H]3O[C@H](CO)[C@@H](O)[C@H](O)[C@H]3O)[C@@H]21` [Compound 3, ajugol], the IC50 in assay [1] and in assay [2] was greater than 100 µM each time. Moreover, the remaining activity at 100 µM in assay [1] came to 77%; in assay [2] (setting [3]), 100%.
`CO[C@H]1[C@@H]2C=CO[C@@H](O[C@@H]3O[C@H](CO)[C@@H](O)[C@H](O)[C@H]3O)[C@@H]2[C@@]2(CO)O[C@@H]12` [Compound 4, methylcatalpol]: the IC50 in assay [1] and in assay [2] was greater than 100 µM in each case. Moreover, the figures for the remaining activity at 100 µM in assay [1] and in assay [2] (setting [3]) were 80% and 100%, respectively.
Consider `COC1C2C=COC(OC3OC(CO)C(O)C(O)C3O)C2C2(O)COC12` (stereo not shown) [Compound 5, trifoliatoside A], for which, in assay [1], the “HIV-1 IN inhibition (in words)” value was “able to inhibit IN, selectively” and the IC50 amounted to 95.5 ± 4.5 µM. In addition, the IC50 in assay [2] is greater than 100 µM. Also, the remaining activity at 100 µM in assay [2] (setting [3]) came out at 93%.
For the compound `CO[C@H]1[C@@H]2C[C@@H]3OC[C@](O)([C@H]2[C@H](O[C@@H]2O[C@H](CO)[C@@H](O)[C@H](O)[C@H]2O)O3)[C@@H]1O` [Compound 6, methylscutelloside], the IC50 is 100 ± 0.5 µM in assay [1] and greater than 100 µM in assay [2]. Further, in assay [2] (setting [3]), the remaining activity at 100 µM turned out to be 100%.
For `CC(=O)O[C@@]1(C)C[C@@H](O)C2C=CO[C@@H](O[C@@H]3O[C@H](CO)[C@@H](O)[C@H](O)[C@H]3O)C21` (stereo partly shown) [Compound 7, ajugoside], the “HIV-1 IN inhibition (in words)” value in assay [1] is given as “able to inhibit IN, selectively”. The results for the IC50 in assay [1] and in assay [2] were 74 ± 3.5 µM and greater than 100 µM, respectively. Also, the remaining activity at 100 µM in assay [2] (setting [3]) is 100%.
On the same counts, the results for `C[C@@H]1O[C@@H](OC[C@H]2O[C@@H](Oc3c(-c4ccc(O)c(O)c4)oc4cc(O)cc(O)c4c3=O)[C@H](O)[C@@H](O)[C@@H]2O)[C@H](O)[C@H](O)[C@H]1O` [Compound 8, rutin] are “submicromolar concentration”, 0.33 ± 0.04 µM, greater than 100 µM and 100%.
Consider `CC1OC(Oc2cc(O)c3c(=O)c(OC4OC(CO)C(O)C(O)C4O)c(-c4ccc(O)cc4)oc3c2)C(O)C(O)C1O` (stereo not shown) [Compound 9, kaempferol-7-O-rhamnosyl-3-O-glucopyranoside], for which, in assay [1], the “HIV-1 IN inhibition (in words)” value is recorded as “submicromolar concentration”; the IC50 was 0.024 µM and 0.11 µM. In addition, the IC50 in assay [2] was greater than 100 µM. Moreover, the remaining activity at 100 µM in assay [2] (setting [3]) turned out to be 100%.
For `O=c1c(OC2O[C@H](CO)[C@@H](O)[C@H](O)[C@H]2O)c(-c2ccc(O)cc2)oc2cc(O)cc(O)c12` (stereo partly shown) [Compound 11, kaempferol-3-O-glucopyranoside], in assay [1], the “HIV-1 IN inhibition (in words)” value is reported as “submicromolar concentration”; the IC50 was 0.11 µM and 0.024 µM. The IC50 in assay [2] was greater than 100 µM. Further, the remaining activity at 100 µM in assay [2] (setting [3]) was 100%.
With `C[C@]1(OC(=O)/C=C/c2ccccc2)C[C@@H](O)C2C=CO[C@@H](O[C@@H]3O[C@H](CO)[C@@H](O)[C@H](O)[C@H]3O)C21` (stereo partly shown) [Compound 12, laterioside], in assay [1], the “HIV-1 IN inhibition (in words)” value is “inactive”, the IC50 is greater than 100 µM and the remaining activity at 100 µM was found to be 80%. Also, in assay [2], the “HIV-1 RNase H inhibition (in words)” value was “inactive” and the IC50 was greater than 100 µM. For the same compound, the remaining activity at 100 µM in assay [2] (setting [3]) was determined as 100%.
Regarding `C[C@]1(OC(=O)/C=C\c2ccccc2)C[C@@H](O)C2C=CO[C@@H](O[C@@H]3O[C@H](CO)[C@@H](O)[C@H](O)[C@H]3O)C21` (stereo partly shown) [Compound 13, trifoliatoside B], the IC50 in assay [1] was 5.96 ± 0.1 µM; in assay [2], greater than 100 µM. Besides, the remaining activity at 100 µM in assay [2] (setting [3]) came to 92%.
`CCOC(=O)C(=O)CC(=O)/C=C/c1cccn1Cc1ccccc1Cl` [RDS1759, reference compound]: in assay [2], the IC50 was determined as 7.3 ± 0.1 µM.
Turning to `O=C(O)[C@H]1O[C@@H](Oc2cc3oc(-c4ccccc4)cc(=O)c3c(O)c2O)[C@H](O)[C@@H](O)[C@@H]1O` [baicalin], the “HIV-1 RT IC50” value in the assay with HIV-1 RT (baicalin from Scutellaria baicalensis) is 0.2 mg/L.
Turning to `O=c1c(O)c(-c2ccc(O)cc2)oc2cc(O)cc(O)c12` [kaempferol], the “HIV-1 RT IC50” value in the assay on HIV-1 RT (kaempferol from Securigera securidaca) is 50 mg/L.
Turning to kaempferol-3-O-rutinoside [Compound 10], the “HIV-1 RNase H percentage of control” value in assay [2] (setting [3]) is recorded as >100 (100%) ^c.
